Several values for one entry are separate records, joined by “and”; a condition that tells them apart may be missing. Identical values can stand only once.
Test system: PANC-1 complex spheroid growth, percent test/control
Experiment: Anticancer human tumor PANC-1 cell line growth inhibition [Asc];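 also: spheroids exposed to agents for 7 days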;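 as to viability, T/C: percent viability relative to DMSO vehicle wells taken as 100%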
Conditions: for viability, T/C: stronger effect = lower value; active = viability on the fitted dose curve at most 10% of control; inactive = the rest
Method in brief: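 Stromal components (HUVEC and hMSC) are co-assembled with the cancer cells into multicellular spheroids. Drugs are then added singly or paired, at concentrations falling by half-log increments from a clinically achievable maximum, capped at 10 microM without known Cmax.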

Cc1nc(N2CCC3(CC2)COC(C)C3N)c(CO)nc1Sc1ccnc(N)c1Cl (stereo unspecified) + CCN1C(C(=O)NC23CCC(C(=O)O)(CC2)CC3)C(c2cccc(Cl)c2F)C2(C(=O)Nc3cc(Cl)ccc32)C12CCCCC2
inactive: viability, T/C (second compound 0.00949 µM, first compound 0.00949 µM) 109% | viability, T/C (second compound 0.00949 µM, first compound 0.03 µM) 95.8% | viability, T/C (second compound 0.00949 µM, first compound 0.0949 µM) 92.8% | viability, T/C (second compound 0.00949 µM, first compound 0.3 µM) 87.7% | viability, T/C (second compound 0.00949 µM, first compound 0.949 µM) 92.1% | viability, T/C (second compound 0.00949 µM, first compound 3 µM) 92.6% | viability, T/C (second compound 0.03 µM, first compound 0.00949 µM) 102% | viability, T/C (second compound 0.03 µM, first compound 0.03 µM) 101% | viability, T/C (second compound 0.03 µM, first compound 0.0949 µM) 98.7% | viability, T/C (second compound 0.03 µM, first compound 0.3 µM) 89.5% | viability, T/C (second compound 0.03 µM, first compound 0.949 µM) 90% | viability, T/C (second compound 0.03 µM, first compound 3 µM) 94.1% | viability, T/C (second compound 0.0949 µM, first compound 0.00949 µM) 103% | viability, T/C (second compound 0.0949 µM, first compound 0.03 µM) 102% | viability, T/C (second compound 0.0949 µM, first compound 0.0949 µM) 98.6% | viability, T/C (second compound 0.0949 µM, first compound 0.3 µM) 92% | viability, T/C (second compound 0.0949 µM, first compound 0.949 µM) 93.7% | viability, T/C (second compound 0.0949 µM, first compound 3 µM) 91.3% | viability, T/C (second compound 0.3 µM, first compound 0.00949 µM) 98.7% | viability, T/C (second compound 0.3 µM, first compound 0.03 µM) 98.1% | viability, T/C (second compound 0.3 µM, first compound 0.0949 µM) 94.5% | viability, T/C (second compound 0.3 µM, first compound 0.3 µM) 96.7% | viability, T/C (second compound 0.3 µM, first compound 0.949 µM) 106% | viability, T/C (second compound 0.3 µM, first compound 3 µM) 99.2% | viability, T/C (second compound 0.949 µM, first compound 0.00949 µM) 113% | viability, T/C (second compound 0.949 µM, first compound 0.03 µM) 91.9% | viability, T/C (second compound 0.949 µM, first compound 0.0949 µM) 108% | viability, T/C (second compound 0.949 µM, first compound 0.3 µM) 101% | viability, T/C (second compound 0.949 µM, first compound 0.949 µM) 108% | viability, T/C (second compound 0.949 µM, first compound 3 µM) 92.9% | viability, T/C (second compound 3 µM, first compound 0.00949 µM) 115% | viability, T/C (second compound 3 µM, first compound 0.03 µM) 116% | viability, T/C (second compound 3 µM, first compound 0.0949 µM) 103% | viability, T/C (second compound 3 µM, first compound 0.3 µM) 108% | viability, T/C (second compound 3 µM, first compound 0.949 µM) 110% | viability, T/C (second compound 3 µM, first compound 3 µM) 103%
> 3 µM: IC50 (curve of first compound, second compound 0.00949 µM) | IC50 (curve of first compound, second compound 0.03 µM) | IC50 (curve of first compound, second compound 0.0949 µM) | IC50 (curve of first compound, second compound 0.3 µM) | IC50 (curve of first compound, second compound 0.949 µM) | IC50 (curve of first compound, second compound 3 µM)

C#Cc1c(F)ccc2cc(O)cc(-c3ncc4c(N5CC6CCC(C5)N6)nc(OCC56CCCN5CC(F)C6)nc4c3F)c12 (stereo unspecified) + Cc1c(S(C)(=O)=O)c(-c2cc(F)cc(N3CCN(c4ccc(NS(=O)(=O)c5ccc(NC(CCN6CCC(C(=O)OCCCP(=O)(O)O)CC6)CSc6ccccc6)c(S(=O)(=O)C(F)(F)F)c5)cc4)CC3)c2)c(-c2ccc(Cl)cc2)n1C(C)C
> 10 µM: IC50 (curve of first compound, second compound 0.0316 µM) | IC50 (curve of first compound, second compound 0.1 µM) | IC50 (curve of first compound, second compound 0.316 µM) | IC50 (curve of first compound, second compound 1 µM) | IC50 (curve of first compound, second compound 3.16 µM) | IC50 (curve of first compound, second compound 10 µM)
inactive: viability, T/C (second compound 0.0316 µM, first compound 0.0316 µM) 86.6% | viability, T/C (second compound 0.0316 µM, first compound 0.1 µM) 84% | viability, T/C (second compound 0.0316 µM, first compound 0.316 µM) 81.4% | viability, T/C (second compound 0.0316 µM, first compound 1 µM) 87.2% | viability, T/C (second compound 0.0316 µM, first compound 3.16 µM) 83.5% | viability, T/C (second compound 0.0316 µM, first compound 10 µM) 72.6% | viability, T/C (second compound 0.1 µM, first compound 0.0316 µM) 84.6% | viability, T/C (second compound 0.1 µM, first compound 0.1 µM) 80.2% | viability, T/C (second compound 0.1 µM, first compound 0.316 µM) 74.8% | viability, T/C (second compound 0.1 µM, first compound 1 µM) 80.9% | viability, T/C (second compound 0.1 µM, first compound 3.16 µM) 78% | viability, T/C (second compound 0.1 µM, first compound 10 µM) 75.3% | viability, T/C (second compound 0.316 µM, first compound 0.0316 µM) 88.7% | viability, T/C (second compound 0.316 µM, first compound 0.1 µM) 77.5% | viability, T/C (second compound 0.316 µM, first compound 0.316 µM) 76.2% | viability, T/C (second compound 0.316 µM, first compound 1 µM) 74% | viability, T/C (second compound 0.316 µM, first compound 3.16 µM) 88.2% | viability, T/C (second compound 0.316 µM, first compound 10 µM) 69.8% | viability, T/C (second compound 1 µM, first compound 0.0316 µM) 80.2% | viability, T/C (second compound 1 µM, first compound 0.1 µM) 75.6% | viability, T/C (second compound 1 µM, first compound 0.316 µM) 72.6% | viability, T/C (second compound 1 µM, first compound 1 µM) 67.4% | viability, T/C (second compound 1 µM, first compound 3.16 µM) 73.7% | viability, T/C (second compound 1 µM, first compound 10 µM) 55.3% | viability, T/C (second compound 3.16 µM, first compound 0.0316 µM) 72.4% | viability, T/C (second compound 3.16 µM, first compound 0.1 µM) 62.9% | viability, T/C (second compound 3.16 µM, first compound 0.316 µM) 59.9% | viability, T/C (second compound 3.16 µM, first compound 1 µM) 60.1% | viability, T/C (second compound 3.16 µM, first compound 3.16 µM) 59% | viability, T/C (second compound 3.16 µM, first compound 10 µM) 56.8% | viability, T/C (second compound 10 µM, first compound 0.0316 µM) 114% | viability, T/C (second compound 10 µM, first compound 0.1 µM) 103% | viability, T/C (second compound 10 µM, first compound 0.316 µM) 101% | viability, T/C (second compound 10 µM, first compound 1 µM) 85.5% | viability, T/C (second compound 10 µM, first compound 3.16 µM) 84.9% | viability, T/C (second compound 10 µM, first compound 10 µM) 67.9%

NC(=O)C(=Cn1cnc(-c2cc(C(F)(F)F)cc(C(F)(F)F)c2)n1)c1cncnc1
inactive: viability, T/C (compound 0.000949 µM) 99.7% and 95.2% and 104% | viability, T/C (compound 0.003 µM) 88.1% and 92.4% and 96.4% | viability, T/C (compound 0.00949 µM) 92% and 89% and 111% | viability, T/C (compound 0.03 µM) 89.8% and 103% and 102% | viability, T/C (compound 0.0949 µM) 113% and 114% and 130% | viability, T/C (compound 0.3 µM) 92.5% and 100% and 118%
> 0.3 µM: IC50 (curve of compound)

From PubChem BioAssay AID1963435 (Molecular Pharmacology Branch, DTP, NCI, 2024)
